According to patent publication US11173144B2, “Adrenergic receptor modulating compounds and methods of using the same” (The Board of Trustees of the Leland Stanford Junior …, priority 2016, dated 2021):

What was measured:
[1] = system: LPS-induced TNF-α response; test: In vivo LPS assay; parameters: species or system C57BI/6J mice; conditions: mice, 3 mg/kg 15 min prior to LPS, 90 min post-LPS
Protocol: Amplification is performed using StepOnePlus (Applied Biosystems).
Following injections, mice are single-housed. At 90 min post-LPS/saline, mice are deeply anesthetized with isoflurane and blood is collected from the right ventricle via cardiac puncture (23 g needle) into lithium heparin-containing vials (BD microtainer plasma tubes). Plasma is separated by centrifugation (11,000 rpm for 3 minutes) within 30 min of collection and stored at −80° C. until analysis. The concentration of TNF-α in the collected plasma is measured by ELISA (Invitrogen, KMC3012) according to the manufacturer's instruction.

[2] = system: LPS-induced TNF-α production in primary microglia; test: In vitro primary microglia TNF-α assay (LPS stimulation, ELISA); type: cell-based, rat; conditions: 4 h
From the text: Mixed glial cells are obtained from the cerebral cortex of Sprague Dawley rat pups at postnatal days 1-3. Briefly, neonates are euthanized by decapitation and their brain tissues are collected for isolation of cortex. The isolated cortex was then trypsinized, triturated, and placed onto tissue culture flasks in DMEM supplemented with 10% fetal bovine serum and 1% Penicillin/Streptomycin. After 10 days in vitro, microglia are harvested by gentle shaking of the growth flask, plated in a 96 well plate at a density of 30,000 cells/well, and incubated at 37° C. overnight. […] Following the 4 h incubation, cell media is collected and the concentration of TNF-α is measured by ELISA (Invitrogen, KRC3011) according to the manufacturer's instruction.
The effects of selected compounds on cellular inflammatory response to LPS are determined in primary microglia extracted from a rat. Briefly, mixed glial cells are obtained from the cerebral cortex of Sprague Dawley rat pups at postnatal days 1-3 and cultured in DMEM supplemented with 10% fetal bovine serum. After 7 days in vitro, microglia are harvested by gentle shaking of the growth flask and plated in a 96 well plate at the density of 3×10^4 cells/well. The cells are used following day. Effects of compounds on LPS-induced TNFα production are determined by incubating cells with LPS along with or without test compounds for 4 hours. Following the 4 hour incubation, cell media are collected and concentration of TNFα was measured by EUSA.

[3] = target: panel of CNS relevant targets, including G-protein coupled receptor and transporters; test: Screen against a panel of CNS relevant targets (off-target affinity); type: binding; conditions: broad range of neurotransmitter transporters, ion channels and other CNS proteins
From the text: From a drug development perspective, characterizing the off-target effects of lead compounds is an important issue, as interactions with off-target molecules may lead to undesirable side effects. Thus we screened xamoterol (S) and the key compound compound 43 against a panel of CNS relevant targets, including G-protein coupled receptor and transporters. […].

[4] = Plasma versus brain concentration after subcutaneous administration in mice; conditions: mouse, in vivo
Protocol: The concentration of selected compounds in plasma (FIG. 8A) versus concentration in brain (FIG. 8A) was assessed after administration in a mice. Briefly, mice are administered with selected compounds via subcutaneous route. Thirty minutes after the compound administration, plasma and brain samples are collected. Concentrations of the selected compounds in plasma and brains are determined by LC/MS/MS.

[5] = Body weight changes on chronic administration in mice; type: in vivo; conditions: 10 mg/kg subcutaneous
Protocol: Transgenic mice expressing amyloid beta protein precursor (APP) and wild-type mice were chronically administered with KSN01-01-18 (10 mg/kg, subcutaneous). Changes on body weight were recorded. Effects of KSN01-01-18 on cognitive function were evaluated in Morris water maze (MWM). Briefly, In the MWM, a large water tank (178 cm in diameter) filled with water was used. A circular platform was placed about 1 cm below the water surface approximately 17 cm away from the wall in one 20 quadrant of the tank. Nontoxic tempera paints were used to make the water opaque. During the consecutive days of hidden platform training, mice were released from drop locations and given 60 sec to find the platform. Upon completion of the hidden platform training, the platform was removed and a 60-sec probe trial was conducted. Successful learning of MWM was determined by the gradual decrease in escape latency during the hidden platform training and discriminative quadrant exploration and latency to reach virtual platform during the probe trial.

C57BI/6J female mice = test: 24 day administration, lung and heart weight and fibrosis; type: in vivo; conditions: 10 mg/kg for 24 days
Protocol: C57BI/6J female mice were administered with isoproterenol, KSN01-01-15, or KSN01-01-18 at 10 mg/kg for 24 days. After 24 days of treatment, mice were sacrificed, and lung and heart weight were measured. Hearts were then fixed in 10% formalin, and stained with Masson trichrome for evaluation of fibrosis.

[6] = system: Transgenic mice expressing amyloid beta protein precursor (APP); test: Morris water maze in transgenic mice expressing amyloid beta protein precursor (APP); type: in vivo; conditions: 10 mg/kg subcutaneous, chronic
Protocol: Mice are tested in a large water tank (178 cm in diameter; 22.0±1.5° C.) with a submerged 17 cm diameter circular platform (˜1 cm below the water surface and ˜50 cm away from the wall). Non-toxic tempera paints (Elmers) are used to make the water opaque. Privacy blinds with four different visual cues surrounded the tank and are located ˜150 cm from the center of the tank. Testing is performed under dim white light (40 Lux at the water surface). Activity is monitored with Ethovision via an overhead video system. Mice complete 4-6 days of hidden platform training (60 seconds to locate the platform when released from a pseudorandomized drop location). […] Successful leaming of MWM is determined by reduced escape latency and discriminative quadrant exploration during the probe trial. […]
Transgenic mice expressing amyloid beta protein precursor (APP) and wild-type mice were chronically administered with KSN01-01-18 (10 mg/kg, subcutaneous). Changes on body weight were recorded. Effects of KSN01-01-18 on cognitive function were evaluated in Morris water maze (MWM). […] Successful learning of MWM was determined by the gradual decrease in escape latency during the hidden platform training and discriminative quadrant exploration and latency to reach virtual platform during the probe trial.

## O=C(NCCNC[C@H](O)COc1ccc(O)cc1)N1CCOCC1 [(S)-Xamoterol, reference compound]
[1]
  LPS-induced TNF-α response in periphery (plasma): markedly inhibited
  LPS-induced inflammatory response in the brain (TNF-α, IL-1β, IL-6 gene expression): attenuated
[2]; rat primary microglia, LPS 10 ng/ml, compound 10 μM
  inhibition of LPS-induced TNF-α production: approximately 60%
[3]
  Ki: > 10 µM

## Cc1n[nH]c2cccc(OC[C@@H](O)CNCCNC(=O)N3CCOCC3)c12 [Compound 38]
[4]
  crossing the blood brain barrier: not capable of crossing the blood brain barrier

## Cc1n[nH]c2cccc(OC[C@@H](O)CNCc3ccn(C)n3)c12 [Compound 92]
[5]
  general toxicity as measured by changes in body weight: does not cause general toxicity
C57BI/6J female mice
  fibrotic changes in heart and heart weight: did not induce these changes
  fibrotic changes in lung and lung weight: did not induce these changes
  morphological changes in heart: did not induce these changes
[6]
  cognitive function in Morris water maze (time to find the virtual platform): cognitive enhancing effects

## CC(C)NCC(O)c1ccc(O)c(O)c1 (centres unmarked) [isoproterenol, reference compound]
[2]; Rattus norvegicus, Microglia, read-out: inhibition of LPS-induced TNF-α production
  inhibition at 10 µM: 85%
C57BI/6J female mice
  fibrotic changes in heart and heart weight: induces fibrotic changes in heart and increases heart weight
  fibrotic changes in lung and lung weight: induces fibrotic changes in lung and increases lung weight
  morphological changes in heart: produces morphological changes in heart
